Experimental data as given in publication PMC6158327, “Negative Allosteric Modulators of mGlu7 Receptor as Putative Antipsychotic Drugs” (Frontiers in Molecular Neuroscience, 2018).
pKi: −log10 of the molar value. Counter-ions that a name gives are not always drawn.

Tests used:
[1] = target: T1, mGlu7 receptor (Homo sapiens, UniProt Q14831); test: HTRF cAMP assay: antagonism of L-Glu (EC80) inhibition of forskolin-stimulated cAMP accumulation (NAM profile); format: cell-based; conditions: inhibition of forskolin-stimulated cAMP accumulation
T1 construct: expressed in transfected cells
T1 sequence (Q14831 35-915): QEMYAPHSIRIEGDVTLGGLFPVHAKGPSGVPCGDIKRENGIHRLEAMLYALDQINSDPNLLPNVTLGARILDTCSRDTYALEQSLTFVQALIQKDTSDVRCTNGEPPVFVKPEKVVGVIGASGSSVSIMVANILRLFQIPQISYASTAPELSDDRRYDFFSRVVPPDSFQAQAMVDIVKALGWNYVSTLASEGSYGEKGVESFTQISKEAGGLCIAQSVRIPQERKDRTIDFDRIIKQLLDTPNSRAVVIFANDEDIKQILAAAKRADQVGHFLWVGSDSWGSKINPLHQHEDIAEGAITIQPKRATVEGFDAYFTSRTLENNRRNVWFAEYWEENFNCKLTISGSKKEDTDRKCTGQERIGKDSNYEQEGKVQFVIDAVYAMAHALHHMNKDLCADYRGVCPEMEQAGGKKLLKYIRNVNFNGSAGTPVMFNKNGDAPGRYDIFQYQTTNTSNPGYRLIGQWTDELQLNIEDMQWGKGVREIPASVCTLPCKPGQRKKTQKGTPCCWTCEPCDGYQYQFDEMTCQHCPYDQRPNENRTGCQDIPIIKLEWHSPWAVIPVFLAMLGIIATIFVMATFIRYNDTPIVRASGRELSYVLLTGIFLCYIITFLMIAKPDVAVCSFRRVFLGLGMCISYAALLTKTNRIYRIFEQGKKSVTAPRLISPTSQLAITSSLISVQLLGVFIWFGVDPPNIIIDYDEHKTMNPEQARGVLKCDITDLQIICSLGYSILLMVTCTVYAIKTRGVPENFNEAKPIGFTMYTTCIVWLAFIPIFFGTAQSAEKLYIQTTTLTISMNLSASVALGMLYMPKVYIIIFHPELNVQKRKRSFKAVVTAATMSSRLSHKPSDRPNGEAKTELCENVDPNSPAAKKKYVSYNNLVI
Protocol: (§1) A homogeneous time-resolved fluorescence (HTRF) cAMP dynamic 2 (Cisbio, Codolet, France) assay was performed as previously described ([Chruścicka et al., 2015]) with recombinant cell lines. Briefly, HEK 293 T-REx cells stably expressing mGlu7 receptor, were collected and suspended in Hanks-HEPES buffer. The cell suspension was added to compounds solution with 5 μM of forskolin (final concentration). After 5 min incubation in 37°C, 5 μl of cAMP-d2 conjugate in lysis buffer was added and mixed with the 10 μl cell suspension by means of an automated pipetting system (Tecan Evo 200, Tecan, Mannedorf, Switzerland). Next, 5 μl anti-cAMP cryptate conjugate was added and the fluorescence at 620 and 665 nm was read after 1 h (Tecan Infinite M1000). The results are shown as the 665 nm/620 nm ratio multiplied by 10^4. The detected signal was inversely proportional to the concentration of cAMP in the sample. […] Each experiment was performed three times (n = 3), and each data point was in triplicate.

[2] = target: mGlu7; design: method as in Wright et al., 2000; conditions: ref Wright et al., 2000; read-out: Ki (affinity of mGlu7 for glutamate); cited from earlier work
[3] = system: prepulse-induced inhibition of the acoustic startle response; test: Prepulse inhibition of the acoustic startle response; format: in vivo, Wistar rats; conditions: MK-801 0.3 mg/kg, rats
Protocol: The procedure was performed according to [Czyrak et al., 2003]. On the day before the experiment, the animals were subjected to a single startle session consisting of two trials, each presented 20 times during the session. During the first trial, a 120 dB, 40 ms pulse was presented, and on the second trial this pulse was preceded by a 75 dB, 20 ms prepulse. On the day of the experiment, the animals were habituated to the background white noise (65 dB) for 5 min (which continued throughout the test), after that the startle session was carried out as described above. Startle response amplitude was defined as the difference between the maximum force detected during a recording window and the force measured immediately before the stimulus onset (the threshold was set at 10 g). For each animal, the amplitudes were averaged separately for each type of trial. The PPI was calculated as the difference between the amplitudes of the pulse (P) and the prepulse + pulse (PP+P), divided by the amplitude of the pulse alone [([P - (PP + P)]/P)×100].

[4] = target: T1, mGlu7 receptor; test: HTRF cAMP assay: potentiation of forskolin action without agonist (inverse agonist properties); format: cell-based; conditions: T-REx 293 cells, 5 μM forskolin
Protocol: as §1
Both compounds dose-dependently potentiated forskolin action, elevating cAMP concentration in the T-REx 293 cells (Figure 2B). […] This effect was not observed for an antagonist of mGluR7 – XAP044.

Question: Which results are given for `N[C@@H](CCC(=O)O)C(=O)O` [L-Glu]?
Answer: L-Glu EC80 concentration [1]: 6260 µM; pKi [2]: 3.06

Question: Which “Prepulse-induced inhibition of the acoustic startle response after MK-801” value [3] does the source give for `C[C@]12N[C@H](Cc3ccccc31)c1ccccc12` [MK-801, (5S,10R)-(+)-5-Methyl-10,11-dihydro-5H-dibenzo[a,d]cyclo-hepten-5,10-imine maleate] here?
Answer: 16 % of control

Question: For `O=c1c(Oc2ccc(I)cc2)coc2cc(O)ccc12` [XAP044], which “Potentiation of forskolin action (inverse agonist effect)” value [4] is on record?
Answer: not observed
